Laboratory results: patent publication US20130310374A1, “Substituted Imidazoquinoline Derivatives” (PIRAMAL ENTERPRISES LIMITED`, priority 2010, published 2013)
pIC50: −log10 of the molar value.

Columns and labels:
[1] = test system: U 87 MG; experiment: Cytotoxicity propidium iodide assay, U 87 MG; format: cell-based; conditions: Homo sapiens; U 87 MG (glioblastoma), 48 hours treatment; read-out: IC50 Values in μM, C5c
Method: The assay was designed as in the reference, Anticancer Drugs, 2002, 13, 1-8, the disclosure of which is incorporated herein by reference for the teaching of the assay.
Cells from cell lines (ATCC) as mentioned in the table given below were seeded at a density of 3000 cells/well in a white opaque 96-well plate. Following incubation at 37° C./5% CO2 for a period of 18-24 hours, the cells were treated with various concentrations (stock solution was prepared in DMSO and subsequent dilutions were made in media as per ATCC guidelines) of the compounds of the present invention for a period of 48 hours. At the end of treatment, the culture medium was discarded, the cells were washed with 1×PBS and 200 μL of […] propidium iodide was added to each well. […] For analysis, the plates were warmed to RT, allowed to thaw and were read in PoleStar fluorimeter with the fluorescence setting. The percentage of viable cells in the non-treated set of wells was considered to be 100 and the percentage viability following treatment was calculated accordingly. IC50 values were calculated from graphs plotted using these percentages. IC50 values for certain compounds of present invention are depicted in Table 1 and % Inhibition of certain compounds of present invention are depicted in Table 2.

[2] = target: T1, PI3Kα (Homo sapiens, UniProt P42336); experiment: p110α radioactive lipid kinase assay (PI3Kα); format: biochemical; conditions: 25 μM ATP
T1 construct: purchased Upstate Millipore
Method: Protocol for Kinase Assay (PI3Kα)
p110α Radioactive Lipid Kinase Assay
The assay was designed as in the reference, Journal of Biomolecular Screening, 2002, Vol. 7, No. 5, 441-450, the disclosure of which is incorporated herein by reference for the teaching of the assay.
The p110α biochemical assay was performed using a radioactive assay measuring the incorporation of ^32P into the p110α substrate, phosphatidylinsoitol (PI). For the generation of IC50 curves, the reaction was performed in a 96-well MaxiSorp plates. Plates were pre-coated with 4 μg/well of a 1:1 ratio of phosphatidylinositol (PI: Avanti #840042C) and phosphatidylserine (PS: Avanti #840032C) diluted in CHCl3. Equal amount of p110α (Upstate Millipore) protein was added to each well, containing 25 μL reaction buffer (50 mM MOPSO pH7.0, 100 mM NaCl, 4 mM MgCl2, 0.1% (w/v) BSA) whereas, for negative control, only reaction buffer was added. Compounds of the present invention dissolved in DMSO were treated at nine-point dose responses (0.3, 1, 3, 6, 10, 30, 60, 100 and 300 nM). Reactions were initiated by the addition of 25 μM ATP solution (Sigma, USA) containing 50 μCi/mL [γ-^32P]-ATP and incubated at RT for 2 hours with gentle shaking. […] The radioactivity incorporated into the immobilized PI substrate was determined with Top Count (Perkin Elmer). Inhibition was calculated using the following equation: […]

[3] = test system: human PC3 xenograft tumors; experiment: Prostate cancer xenograft model (tumor growth inhibition in vivo); parameters: species or system mouse; conditions: SCID mice, 3 mpk p.o. (Example 3a once daily and BID; Example 19 once daily), 15 days; FIG. 3A
Method: Animals: Severe combined immunodeficient (SCID) mice (Male and Female) 6 to 8 weeks old, were used. Animals were housed in suitable cages under specified pathogen-free conditions in rooms maintained at 23° C. and 50% humidity, with a 12-hour light/12-hour dark cycle. The mice were quarantined during the acclimatization period of at least a week.
Prostate cancer xenograft model: PC3 (human prostate cancer) cell line (ATCC) was maintained in RPMI 1640 (Gibco BRL, Pasley, UK) supplemented with 10% (v/v) FBS. The cells were incubated at 37° C. in a humidified atmosphere containing 5% CO2. Cells were passaged using trypsin/EDTA for cell detachment once every 3 days. On the day of tumor cell injection, cells were detached from the flasks with trypsin/EDTA, washed once in medium and re-suspended in serum free RPMI 1640 at 5 million cells/0.2 mL volume, and placed on ice. […]
Procedure: Tumor-bearing mice were randomized (n=7 per group) in four groups when the mean tumor volume was ˜100 mm^3. […] Twice a week, each xenograft was measured in two dimensions (a=length; b=width) with a caliper. Tumor volume (V) was determined by the following equation: V=ab^2/2
Tumor volumes were converted into tumor weights assuming a tumor density of 1 mm^3=1 mg. Tumor growth inhibition (TGI) for each group was calculated according to the following formula: […]

T1 sequence (P42336 whole entry, species assumed): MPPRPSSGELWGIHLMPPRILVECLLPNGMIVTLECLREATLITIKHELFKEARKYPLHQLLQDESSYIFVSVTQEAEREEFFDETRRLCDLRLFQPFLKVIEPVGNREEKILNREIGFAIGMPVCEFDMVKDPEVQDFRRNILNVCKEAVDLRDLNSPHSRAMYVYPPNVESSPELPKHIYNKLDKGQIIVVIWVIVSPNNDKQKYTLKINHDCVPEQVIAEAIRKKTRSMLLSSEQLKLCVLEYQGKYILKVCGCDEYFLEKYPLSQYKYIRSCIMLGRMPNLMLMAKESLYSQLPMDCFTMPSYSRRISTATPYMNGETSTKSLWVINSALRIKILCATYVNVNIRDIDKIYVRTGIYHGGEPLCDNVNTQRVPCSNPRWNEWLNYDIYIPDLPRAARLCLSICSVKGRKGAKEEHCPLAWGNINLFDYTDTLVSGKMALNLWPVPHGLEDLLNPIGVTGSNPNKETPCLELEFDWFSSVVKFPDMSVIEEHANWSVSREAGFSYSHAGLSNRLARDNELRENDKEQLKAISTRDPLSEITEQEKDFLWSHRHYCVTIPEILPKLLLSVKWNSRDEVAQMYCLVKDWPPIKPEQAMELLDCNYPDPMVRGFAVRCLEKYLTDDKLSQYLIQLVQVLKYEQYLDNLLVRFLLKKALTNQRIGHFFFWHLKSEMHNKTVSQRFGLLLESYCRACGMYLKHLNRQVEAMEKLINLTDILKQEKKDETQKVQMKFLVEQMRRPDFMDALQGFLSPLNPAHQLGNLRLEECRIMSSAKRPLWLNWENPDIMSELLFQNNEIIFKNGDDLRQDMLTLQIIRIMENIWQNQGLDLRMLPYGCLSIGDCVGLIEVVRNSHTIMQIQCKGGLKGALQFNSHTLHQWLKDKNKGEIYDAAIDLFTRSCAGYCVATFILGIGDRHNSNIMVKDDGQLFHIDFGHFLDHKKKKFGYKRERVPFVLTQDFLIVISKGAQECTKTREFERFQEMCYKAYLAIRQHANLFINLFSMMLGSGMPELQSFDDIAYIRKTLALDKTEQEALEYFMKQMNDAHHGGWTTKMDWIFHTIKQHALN
T1 sequence (P27986 whole entry partner, species assumed): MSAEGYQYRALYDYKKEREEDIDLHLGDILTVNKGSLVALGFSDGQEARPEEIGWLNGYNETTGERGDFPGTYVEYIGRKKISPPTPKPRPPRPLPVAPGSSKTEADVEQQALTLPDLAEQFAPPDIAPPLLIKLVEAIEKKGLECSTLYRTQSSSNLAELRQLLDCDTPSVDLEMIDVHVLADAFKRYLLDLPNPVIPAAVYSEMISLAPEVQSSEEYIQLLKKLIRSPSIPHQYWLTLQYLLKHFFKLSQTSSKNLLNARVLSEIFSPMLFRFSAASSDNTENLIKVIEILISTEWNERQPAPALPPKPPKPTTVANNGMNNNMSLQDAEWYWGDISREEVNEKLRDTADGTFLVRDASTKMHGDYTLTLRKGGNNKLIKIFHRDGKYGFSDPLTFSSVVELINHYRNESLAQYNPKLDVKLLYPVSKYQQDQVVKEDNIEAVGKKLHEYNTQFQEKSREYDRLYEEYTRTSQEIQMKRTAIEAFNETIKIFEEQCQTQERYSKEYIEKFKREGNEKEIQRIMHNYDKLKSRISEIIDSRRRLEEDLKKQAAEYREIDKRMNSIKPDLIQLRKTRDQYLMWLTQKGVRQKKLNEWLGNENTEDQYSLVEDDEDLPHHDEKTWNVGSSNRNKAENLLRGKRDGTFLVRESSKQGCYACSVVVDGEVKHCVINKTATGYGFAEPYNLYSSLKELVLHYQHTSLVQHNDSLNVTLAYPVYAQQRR

pIC50 [2]	Compound	IC50 [1]	Tumor growth in-vivo, PC3 xenograft [3]
–	CC(C)(C#N)c1ccc(-n2c(=O)n(CC#N)c3cnc4ccc(-c5cnc(N)c(C(F)(F)F)c5)cc4c32)cn1 [Example 16, 2-(5-(8-(6-Amino-5-(trifluoromethyl)pyridin-3-yl)-3-(cyanomethyl)-2-oxo-2,3-dihydro-1H-imidazo[4,5-c]quinolin-1-yl)pyridin-2-yl)-2-methylpropanenitrile]	7.75 µM	–
8.54	COc1ccc(-n2c(=O)n(C)c3cnc4ccc(-c5cnc(N)c(C(F)(F)F)c5)cc4c32)cn1 [Example 19, 8-(6-Amino-5-(trifluoromethyl)pyridin-3-yl)-1-(6-methoxypyridin-3-yl)-3-methyl-1H-imidazo[4,5-c]quinolin-2(3H)-one]	3.88 µM	effectively inhibit tumor growth in-vivo
8.86	CS(=O)(=O)O.Cn1c(=O)n(-c2ccc(C(C)(C)C#N)nc2)c2c3cc(-c4cnc(N)c(C(F)(F)F)c4)ccc3ncc21 [Example 3a, 8-(6-Amino-5-(trifluoromethyl)pyridin-3-yl)-1-(6-(2-cyanopropan-2-yl)pyridin-3-yl)-3-methyl-2-oxo-2,3-dihydro-1H-imidazo[4,5-c]quinolin-5-ium methanesulfonate]	–	effectively inhibit tumor growth in-vivo
